tested on: NL-RLuc virus; experiment: Inhibition of HIV replication: NL-RLuc reporter virus in MT-2 cells, luciferase readout; format: cell-based; conditions: Human immunodeficiency virus 1, MT2, 120 h, MT-2 cells infected with NL-RLuc virus, 5 days of incubation, 10% FBS, at least 2 experiments
From the text: Inhibition of HIV Replication:
A recombinant NL-RLuc proviral clone was constructed in which a section of the nef gene from NL4-3 was replaced with the Renilla Luciferase gene. This virus is fully infectious and can undergo multiple cycles of replication in cell culture. In addition, the luciferous reporter provides a simple and easy method for quantitating the extent of virus growth and consequently, the antiviral activity of test compounds. The plasmid pNLRLuc contains the proviral NL-Rluc DNA cloned into pUC 18 at the PvuII site. The NL-RLuc virus was prepared by transfection of 293T cells with the plasmid pNLRLuc. Transfections were performed using the LipofectAMINE PLUS kit from Invitrogen (Carlsbad, Calif.) according to the manufacturer and the virus generated was titered in MT-2 cells. For susceptibility analyses, the titrated virus was used to infect MT-2 cells in the presence of compound, and after 5 days of incubation, cells were processed and quantitated for virus growth by the amount of expressed luciferase. Assay media was RPMI 1640 supplemented with 10% heat inactivated fetal bovine serum (FBS), 100 units/ml penicillin G/100 units/ml streptomycin, 10 mM HEPES buffer pH 7.55 and 2 mM L-glutamine. The results from at least 2 experiments were used to calculate the EC50 values. Luciferase was quantitated using the Dual Luciferase kit from Promega (Madison, Wis.). Susceptibility of viruses to compounds was determined by incubation in the presence of serial dilutions of the compound. The 50% effective concentration (EC50) was calculated by using the exponential form of the median effect equation where (Fa)=1/[1+(ED50/drug conc.)^m](Johnson V A, Byington R T. Infectivity Assay. In Techniques in HIV Research. ed. Aldovini A, Walker B D. 71-76. New York: Stockton Press. 1990).

| SMILES | EC50 [nM] |
| --- | --- |
| C=Cc1c(C)c([C@H](OC(C)(C)C)C(=O)O)c2n3cc(nc13)-c1cccc(c1)-c1cc(F)ccc1O[C@@H](C)CCCCOC1(C)CCN2CC1 [Example 38, (2S)-2-(tert-Butoxy)-2-[(22S)-5-ethenyl-17-fluoro-4,22,28-trimethyl-21,27-dioxa-1,7,34-triazahexacyclo[26.2.2.1^6,^9.1^10,^14.0^2,^7.0^15,^20]tetratriaconta-2,4,6(34),8,10(33),11,13,15(20),16,18-decaen-3-yl]acetic acid] | 93 |
| Cc1c([C@H](OC(C)(C)C)C(=O)O)c2n3cc(nc3c1-c1ccncc1)-c1cccc(c1)-c1cc(F)ccc1O[C@@H](C)CCCCOC1(C)CCN2CC1 [Example 39, (2S)-2-(tert-Butoxy)-2-[(22S)-17-fluoro-4,22,28-trimethyl-5-(pyridin-4-yl)-21,27-dioxa-1,7,34-triazahexacyclo[26.2.2.1^6,^9.1^10,^14.0^2,^7.0^15,^20]tetratriaconta-2,4,6(34),8,10(33),11,13,15(20),16,18-decaen-3-yl]acetic acid] | 12 |
| Cc1c([C@H](OC(C)(C)C)C(=O)O)c2n3cc(nc3c1C)-c1cccc(c1)-c1cc(F)c(F)cc1O[C@@H](C)CCCCOC1(C)CCN2CC1 [Example 41, (2S)-2-(tert-Butoxy)-2-[(22S)-17,18-difluoro-4,5,22,28-tetramethyl-21,27-dioxa-1,7,34-triazahexacyclo[26.2.2.1^6,^9.1^10,^14.0^2,^7.0^15,^20]tetratriaconta-2,4,6(34),8,10(33),11,13,15(20),16,18-decaen-3-yl]acetic acid] | 13 |
| Cc1c([C@H](OC(C)(C)C)C(=O)O)c2n3cc(nc3c1C)-c1cccc(c1)-c1cc(OC(F)(F)F)ccc1O[C@@H](C)CCCCOC1(C)CCN2CC1 [Example 42, (2S)-2-(tert-Butoxy)-2-[(22S)-4,5,22,28-tetramethyl-17-(trifluoromethoxy)-21,27-dioxa-1,7,34-triazahexacyclo[26.2.2.1^6,^9.1^10,^14.0^2,^7.0^15,^20]tetratriaconta-2,4,6(34),8,10(33),11,13,15(20),16,18-decaen-3-yl]acetic acid] | 60 |
| Cc1c([C@H](OC(C)(C)C)C(=O)O)c2n3cc(nc3c1C)-c1cccc(c1)-c1cc(F)cc(F)c1O[C@@H](C)CCCCOC1(C)CCN2CC1 [Example 45, (2S)-2-(tert-Butoxy)-2-[(22S)-17,19-difluoro-4,5,22,28-tetramethyl-21,27-dioxa-1,7,34-triazahexacyclo[26.2.2.1^6,^9.1^10,^14.0^2,^7.0^15,^20]tetratriaconta-2,4,6(34),8,10(33),11,13,15(20),16,18-decaen-3-yl]acetic acid] | 47 |
| Cc1cc2nc3cn2c(c1[C@H](OC(C)(C)C)C(=O)O)N1CCC(C)(CC1)OCCCC[C@H](C)Oc1ccc(F)c(F)c1-c1cccc-3c1 [Example 46, (2S)-2-(tert-butoxy)-2-[(22S)-16,17-difluoro-4,22,28-trimethyl-21,27-dioxa-1,7,34-triazahexacyclo[26.2.2.1^6,^9.1^10,^14.0^2,^7.0^15,^20]tetratriaconta-2,4,6(34),8,10(33),11,13,15(20),16,18-decaen-3-yl]acetic acid] | 4 |
| Cc1c([C@H](OC(C)(C)C)C(=O)O)c2n3cc(nc3c1C)-c1cccc(c1)-c1c(ccc(F)c1F)O[C@@H](C)CCCCOC1(C)CCN2CC1 [Example 47, (2S)-2-(tert-Butoxy)-2-[(22S)-16,17-difluoro-4,5,22,28-tetramethyl-21,27-dioxa-1,7,34-triazahexacyclo[26.2.2.1^6,^9.1^10,^14.0^2,^7.0^15,^20]tetratriaconta-2,4,6(34),8,10(33),11,13,15(20),16,18-decaen-3-yl]acetic acid] | 7 |
| C=C(C)c1c(C)c([C@H](OC(C)(C)C)C(=O)O)c2n3cc(nc13)-c1cccc(c1)-c1cc(F)ccc1O[C@@H](C)CCCCOC1(C)CCN2CC1 [Example 48, (2S)-2-(tert-Butoxy)-2-[(22S)-17-fluoro-4,22,28-trimethyl-5-(prop-1-en-2-yl)-21,27-dioxa-1,7,34-triazahexacyclo[26.2.2.1^6,^9.1^10,^14.0^2,^7.0^15,^20]tetratriaconta-2,4,6(34),8,10(33),11,13,15(20),16,18-decaen-3-yl]acetic acid] | 24 |
| Cc1c([C@H](OC(C)(C)C)C(=O)O)c2n3cc(nc3c1CO)-c1cccc(c1)-c1cc(F)ccc1O[C@@H](C)CCCCOC1(C)CCN2CC1 [Example 53, (2S)-2-(tert-Butoxy)-2-[(22S)-17-fluoro-5-(hydroxymethyl)-4,22,28-trimethyl-21,27-dioxa-1,7,34-triazahexacyclo[26.2.2.1^6,^9.1^10,^14.0^2,^7.0^15,^20]tetratriaconta-2,4,6(34),8,10(33),11,13,15(20),16,18-decaen-3-yl]acetic acid] | 8 |
| Cc1c([C@H](OC(C)(C)C)C(=O)O)c2n3cc(nc3c1CO)-c1cccc(c1)-c1c(ccc(F)c1F)O[C@@H](C)CCCCOC1(C)CCN2CC1 [Example 54, (2S)-2-(tert-Butoxy)-2-[(22S)-16,17-difluoro-5-(hydroxymethyl)-4,22,28-trimethyl-21,27-dioxa-1,7,34-triazahexacyclo[26.2.2.1^6,^9.1^10,^14.0^2,^7.0^15,^20]tetratriaconta-2,4,6(34),8,10(33),11,13,15(20),16,18-decaen-3-yl]acetic acid] | 4 |

same assay, conditions: MT-2 cells infected with NL-RLuc virus, 5 days of incubation, 10% FBS, at least 2 experiments

| SMILES | EC50 [nM] |
| --- | --- |
| Cc1c([C@H](OC(C)(C)C)C(=O)O)c2n3cc(nc3c1C)-c1cccc(c1)-c1c(F)cc(F)cc1O[C@@H](C)CCCCOC1(C)CCN2CC1 [Example 43, (2S)-2-(tert-Butoxy)-2-[(22S)-16,18-difluoro-4,5,22,28-tetramethyl-21,27-dioxa-1,7,34-triazahexacyclo[26.2.2.1^6,^9.1^10,^14.0^2,^7.0^15,^20]tetratriaconta-2,4,6(34),8,10(33),11,13,15(20),16,18-decaen-3-yl]acetic acid] | 11 |
| Cc1c([C@H](OC(C)(C)C)C(=O)O)c2n3cc(nc3c1C)-c1cccc(c1)-c1c(F)cc(F)cc1O[C@@H](C)CCCCOC1(C)CCN2CC1 [Example 44, (2S)-2-(tert-butoxy)-2-[(22S)-16,18-difluoro-4,5,22,28-tetramethyl-21,27-dioxa-1,7,34-triazahexacyclo[26.2.2.1^6,^9.1^10,^14.0^2,^7.0^15,^20]tetratriaconta-2,4,6(34),8,10(33),11,13,15(20),16,18-decaen-3-yl]acetic acid] | 331 |
| Cc1c([C@H](OC(C)(C)C)C(=O)O)c2n3cc(nc3c1C(C)O)-c1cccc(c1)-c1c(ccc(F)c1F)O[C@@H](C)CCCCOC1(C)CCN2CC1 (stereo partly drawn) [Example 49, (2S)-2-(tert-Butoxy)-2-[(22S)-16,17-difluoro-5-(1-hydroxyethyl)-4,22,28-trimethyl-21,27-dioxa-1,7,34-triazahexacyclo[26.2.2.1^6,^9.1^10,^14.0^2,^7.0^15,^20]tetratriaconta-2,4,6(34),8,10(33),11,13,15(20),16,18-decaen-3-yl]acetic acid] | 2 |
| Cc1c([C@H](OC(C)(C)C)C(=O)O)c2n3cc(nc3c1C(C)O)-c1cccc(c1)-c1c(ccc(F)c1F)O[C@@H](C)CCCCOC1(C)CCN2CC1 (stereo partly drawn) [Example 50, (2S)-2-(tert-Butoxy)-2-[(22S)-16,17-difluoro-5-(1-hydroxyethyl)-4,22,28-trimethyl-21,27-dioxa-1,7,34-triazahexacyclo[26.2.2.1^6,^9.1^10,^14.0^2,^7.0^15,^20]tetratriaconta-2,4,6(34),8,10(33),11,13,15(20),16,18-decaen-3-yl]acetic acid] | 10 |
